From patent US20010051630A1, “Use of hydroxylamine derivatives, and method and preparations for increasing the tolerance of field crops against weather stresses” (priority 1997, published 2001)
Marks after values point to notes of the source that are not given here.

How the values were obtained:
Mo 17 inbred maize line = assay: CSVT (Complex Stressing Vigour Test), seeds soaked in active agent, Mo 17 maize; assay type: in vivo; details: seeds soaked in 10 mg/l active agent, * = significant vs control P < 0.05
Description: (§1) In this experiment the tolerance of maize, soybean and pepper seeds treated with the active agent against cold was tested. This test imposed temperature and oxygen deficiency stresses on the seeds and was carried out according to Barla-Szabó and Dolinka CSVT (Complex Stressing Vigour Test). For a single test, two hundred seeds were soaked for 48 hours at 25° C. and another 48 hours at 5° C in 150 ml distilled water containing the active agent in 10 mg/l concentration. Following the 96 hours of soaking, the seeds were further germinated between rolled wet paper for 96 hours at 25° C. There were 25 seeds in each roll, the rolls were placed vertically into containers and covered with a plastic bag in order to reduce evaporation. During the whole procedure the seeds were kept in darkness. At the end of the experiment the number of normally developing and ungerminated seeds were recorded. The length of the normal seedlings was measured and the average length of the five longest seedlings was calculated. Seedlings longer than 0.33 times the average length of the five longest seedlings were considered to be of high vigour, and low vigour seedlings were shorter than this length.

HMv09 inbred maize line = assay: CSVT, seeds soaked in active agent, HMv09 maize; assay type: in vivo; details: seeds soaked in 10 mg/l active agent
Description: as §1

[1] = tested on: maize of high chilling tolerance (HT) population; assay: CSVT, maize population of high chilling tolerance (HT); assay type: in vivo
Description: as §1, with “darkness.” for “darkness. At the end of the experiment the number of normally developing and ungerminated seeds were recorded. The length of the normal seedlings was measured and the average length of the five longest seedlings was calculated. Seedlings longer than 0.33 times the average length of the five longest seedlings were considered to be of high vigour, and low vigour seedlings were shorter than this length.”
(§2) At the end of the experiment the number of normally developing and ungerminated seeds were recorded. The length of the normal seedlings was measured and the average length of the five longest seedlings was calculated. Seedlings longer than 0.33 times the average length of the five longest seedlings were considered to be of high vigour, and low vigour seedlings were shorter than this length.
(§3) In the case of a further experiment with maize of low chilling tolerance (LT) and high chilling tolerance (HT) populations [Ref: P. Landi, E. Frascaroli, A. Lovato; EUPHYTICA 64 21-29 (1992)], the following positive effects were found (Table 3.).

[2] = tested on: maize of low chilling tolerance (LT) population; assay: CSVT, maize population of low chilling tolerance (LT); assay type: in vivo
Description: as §1, with “darkness.” for “darkness. At the end of the experiment the number of normally developing and ungerminated seeds were recorded. The length of the normal seedlings was measured and the average length of the five longest seedlings was calculated. Seedlings longer than 0.33 times the average length of the five longest seedlings were considered to be of high vigour, and low vigour seedlings were shorter than this length.”
as §2, §3

McCall soybeans = assay: CSVT with PVA-pearled McCall soybeans, relative length; assay type: in vivo, soybean; details: 2.5 mg in 1 ml 2.5% PVA per 100 seeds
Description: as §1, with “darkness.” for “darkness. At the end of the experiment the number of normally developing and ungerminated seeds were recorded. The length of the normal seedlings was measured and the average length of the five longest seedlings was calculated. Seedlings longer than 0.33 times the average length of the five longest seedlings were considered to be of high vigour, and low vigour seedlings were shorter than this length.”
In a further CSVT experiment also using McCall soybeans, polyvinylalcohol (PVA) was applied for pearling the seeds. The 2.5 mg doses of the active agents were dissolved in 1 ml of 2.5% PVA solution, and this quantity was applied to 100 pieces of seeds. The improvement of the chilling tolerance is observed by the significant elongation of the germ and the roots.

soybean cv. Bólyi 44 = assay: Field soybean cultivation, yield; assay type: in vivo; details: for Weight of the crop (kg/m^2): seeds pearled with 1 mg active agent in 1 ml 5% PVA per 100 seeds; for Improvement compared to the control (%): weight of the crop
Description: The experiment was performed using soybean cv. Bólyi 44. Before sowing, the seeds were treated with Rhyzobium Japonicum nitrogen-binding bacterium, which forms a root nodule providing 50-70% of the nitrogen demand of the plant.
The examined compounds were applied by pearling the seeds; 1 ml of pearling agent containing 1 mg of active agent in a 5% aqueous PVA solution was used for 100 seeds.
The plants were sown after soil preparation in the autumn, using a crop rotation system, 3-5 cm deep in the ground, with a 45-50 cm row distance, a 5 cm plant distance and 450,000-500,000 plant/ha density. The date of sowing was Apr. 15, 1997. During the development of the plant, the usual cultivation procedures were followed and the usual pesticides were used. The harvest took place in September-October, with the water content of the grains being between 16-18%.

Mo 17 maize inbred line = assay: Chilling tolerance of maize in a gradient chamber; assay type: in vivo
Description: The experiment was performed using the Mo 17 maize inbred line. The seeds were coated with a 2% solution of the examined compound dissolved in 2 ml polyvinylalcohol before germination, where the above quantity of solution is applied for 100 seeds. The seeds were germinated for 3 days wrapped in wet filter paper, they were sown and then cultivated in gradient chamber for 6 weeks. In the gradient chamber, the temperature was maintained on a scale between 18 and 12° C., with differences of 1° C. This was followed by a one week regeneration at 23/20° C. temperature.
In the experiment, the length of the plants was measured 16, 31 and 43 days after the sowing, and at the end of the experiment the fresh weight of the plants was measured. The experiment was performed on 4 plants at each temperature and by each treatment.

Seaway bean cultivar = assay: Drought tolerance of beans, part a (5 days hardening); assay type: in vivo; details: 7 days without water, one week regeneration
Source text: Based on the experiences of our preliminary experiments, the plants were hardened before the application of the active agent by withholding the water for a few days, until the first signs of withering appeared. Then the plants were watered and the active agent was either dissolved in the water, or sprayed to the plants directly. Afterwards, the plants were subjected to different periods of drought according to the given experiment, watered again, and after a week-long regeneration period, the survival ratio was determined.
a) Seaway bean cultivar was hardened for 5 days by withholding the water. Afterwards the plantlets were watered for two days normally. During this time, a 10 mg/liter and 100 mg/liter concentration solution of the active agent was applied two times a day dissolved in water or by direct spraying. Then the water was withheld for 7 days, and after a week-long regeneration period, the survival ratio was determined.

N-[2-hydroxy-3-(1-piperidinyl)propoxy]-ethylurethane [Compound 7]
Ratio of high vigour plants (%) (Mo 17 inbred maize line): 24%

Cl.ClC(=NOCCCN1CCCCC1)c1cccs1 [Compound 10, N-[3-(1-piperidinyl)propoxy]-thiophene-2-carboximidoylchloride hydrochloride]
Ratio of high vigour plants (%) (HMv09 inbred maize line): 45* %

CN(C)C(=NOCC(O)CN1CCCCC1)Nc1ccccc1.Cl (stereo not shown) [Compound 9, N,N-dimethyl-N′-phenyl-N″-[2-hydroxy-3-(1-piperidinyl)propoxy]-guanidine hydrochloride]
Ratio of high vigour plants (%) (HMv09 inbred maize line): 56* %

CCCCCCCCCCCCCCCC(=O)OC(CONC(=N)c1cccnc1)CN1CCCCC1.Cl (stereo not shown) [Compound 2, N-[2-palmitoyloxy-3-(1-piperidinyl)propoxy]-3-pyridinecarboximidamide Monohydrochloride]
Ratio of high vigour plants %, HT [1]: 92* %
Ratio of high vigour plants %, LT [2]: 86* %
Relative length (control = 100), germ (McCall soybeans): 133
Relative length (control = 100), root (McCall soybeans): 150
Ratio of high vigour plants (%) (Mo 17 inbred maize line): 47* %

CNC(=NOCCCN1CCCCC1)N(C)c1ccccc1.Cl [Compound 6, N-N′-dimethyl-N′-phenyl-N″-[3-(1-piperidinyl)propoxy]-guanidine hydrochloride]
Ratio of high vigour plants (%) (Mo 17 inbred maize line): 36* %

Cl.O=[N+]([O-])c1ccccc1C(Cl)=NOCC(O)CN1CCCCC1 (stereo not shown) [Compound 4, N-[2-hydroxy-3-(1-piperidinyl)propoxy]-2′-nitro-benzenecarboximidoyl Chloride Monohydrochloride]
Ratio of high vigour plants %, HT [1]: 96* %
Ratio of high vigour plants %, LT [2]: 92* %
Weight of the crop (kg/m^2) (soybean cv. Bólyi 44): 0.50 kg/m^2
Improvement compared to the control (%) (soybean cv. Bólyi 44): 11.1%
Length (cm) (Mo 17 maize inbred line; 12° C., 16 days): 5.8 cm
Length (cm) (Mo 17 maize inbred line; 12° C., 31 days): 11.3 cm
FW (g), fresh weight (Mo 17 maize inbred line; 12° C., 43 days): 1.5 g
Length (cm) (Mo 17 maize inbred line; 12° C., 43 days): 20.1 cm
Length (cm) (Mo 17 maize inbred line; 13° C., 16 days): 7.4 cm
Length (cm) (Mo 17 maize inbred line; 13° C., 31 days): 13.1 cm
FW (g), fresh weight (Mo 17 maize inbred line; 13° C., 43 days): 2.1 g
Length (cm) (Mo 17 maize inbred line; 13° C., 43 days): 23.8 cm
Length (cm) (Mo 17 maize inbred line; 14° C., 16 days): 9.7 cm
Length (cm) (Mo 17 maize inbred line; 14° C., 31 days): 17.2 cm
FW (g), fresh weight (Mo 17 maize inbred line; 14° C., 43 days): 2.9 g
Length (cm) (Mo 17 maize inbred line; 14° C., 43 days): 25.1 cm
Length (cm) (Mo 17 maize inbred line; 15° C., 16 days): 10.2 cm
Length (cm) (Mo 17 maize inbred line; 15° C., 31 days): 21.3 cm
FW (g), fresh weight (Mo 17 maize inbred line; 15° C., 43 days): 4.4 g
Length (cm) (Mo 17 maize inbred line; 15° C., 43 days): 32.3 cm
Length (cm) (Mo 17 maize inbred line; 16° C., 16 days): 15.4 cm
Length (cm) (Mo 17 maize inbred line; 16° C., 31 days): 26.8 cm
FW (g), fresh weight (Mo 17 maize inbred line; 16° C., 43 days): 5.0 g
Length (cm) (Mo 17 maize inbred line; 16° C., 43 days): 34.5 cm
Length (cm) (Mo 17 maize inbred line; 17° C., 16 days): 19.7 cm
Length (cm) (Mo 17 maize inbred line; 17° C., 31 days): 31.2 cm
FW (g), fresh weight (Mo 17 maize inbred line; 17° C., 43 days): 6.6 g
Length (cm) (Mo 17 maize inbred line; 17° C., 43 days): 37.3 cm
Length (cm) (Mo 17 maize inbred line; 18° C., 16 days): 15.0 cm
Length (cm) (Mo 17 maize inbred line; 18° C., 31 days): 28.4 cm
FW (g), fresh weight (Mo 17 maize inbred line; 18° C., 43 days): 6.2 g
Length (cm) (Mo 17 maize inbred line; 18° C., 43 days): 38.0 cm
Relative length (control = 100), germ (McCall soybeans): 116
Relative length (control = 100), root (McCall soybeans): 135
Ratio of high vigour plants (%) (Mo 17 inbred maize line): 32* %

CC(C)(C)NCC(O)CONC(=Nc1ccccc1)c1ccccc1.Cl (stereo not shown) [Compound 5, N-[[3-(1,1-dimethylethyl)-amino]-2-hydroxypropoxy]-N′-phenyl-benzamidine hydrochloride]
Ratio of high vigour plants (%) (HMv09 inbred maize line): 57* %
Weight of the crop (kg/m^2) (soybean cv. Bólyi 44): 0.52 kg/m^2
Improvement compared to the control (%) (soybean cv. Bólyi 44): 15.5%
Length (cm) (Mo 17 maize inbred line; 12° C., 16 days): 4.5 cm
Length (cm) (Mo 17 maize inbred line; 12° C., 31 days): 10.9 cm
FW (g), fresh weight (Mo 17 maize inbred line; 12° C., 43 days): 2.0 g
Length (cm) (Mo 17 maize inbred line; 12° C., 43 days): 25.5 cm
Length (cm) (Mo 17 maize inbred line; 13° C., 16 days): 4.7 cm
Length (cm) (Mo 17 maize inbred line; 13° C., 31 days): 10.0 cm
FW (g), fresh weight (Mo 17 maize inbred line; 13° C., 43 days): 1.1 g
Length (cm) (Mo 17 maize inbred line; 13° C., 43 days): 18.5 cm
Length (cm) (Mo 17 maize inbred line; 14° C., 16 days): 5.8 cm
Length (cm) (Mo 17 maize inbred line; 14° C., 31 days): 11.6 cm
FW (g), fresh weight (Mo 17 maize inbred line; 14° C., 43 days): 1.3 g
Length (cm) (Mo 17 maize inbred line; 14° C., 43 days): 20.3 cm
Length (cm) (Mo 17 maize inbred line; 15° C., 16 days): 9.5 cm
Length (cm) (Mo 17 maize inbred line; 15° C., 31 days): 22.2 cm
FW (g), fresh weight (Mo 17 maize inbred line; 15° C., 43 days): 5.4 g
Length (cm) (Mo 17 maize inbred line; 15° C., 43 days): 34.0 cm
Length (cm) (Mo 17 maize inbred line; 16° C., 16 days): 12.4 cm
Length (cm) (Mo 17 maize inbred line; 16° C., 31 days): 26.4 cm
FW (g), fresh weight (Mo 17 maize inbred line; 16° C., 43 days): 7.7 g
Length (cm) (Mo 17 maize inbred line; 16° C., 43 days): 42.3 cm
Length (cm) (Mo 17 maize inbred line; 17° C., 16 days): 17.8 cm
Length (cm) (Mo 17 maize inbred line; 17° C., 31 days): 29.9 cm
FW (g), fresh weight (Mo 17 maize inbred line; 17° C., 43 days): 9.7 g
Length (cm) (Mo 17 maize inbred line; 17° C., 43 days): 44.3 cm
Length (cm) (Mo 17 maize inbred line; 18° C., 16 days): 14.6 cm
Length (cm) (Mo 17 maize inbred line; 18° C., 31 days): 25.0 cm
FW (g), fresh weight (Mo 17 maize inbred line; 18° C., 43 days): 7.6 g
Length (cm) (Mo 17 maize inbred line; 18° C., 43 days): 39.0 cm
survival (%), Watering (10 mg/l) (Seaway bean cultivar): 25* %
survival (%), Watering (100 mg/l) (Seaway bean cultivar): 36* %
Relative length (control = 100), germ (McCall soybeans): 127
Relative length (control = 100), root (McCall soybeans): 152
Ratio of high vigour plants (%) (Mo 17 inbred maize line): 35* %

CCCCCCN(OCC(O)CN1CCCCC1)C(N)=O (stereo not shown) [Compound 8, N-hexyl-N-[2-hydroxy-3-(1-piperidinyl)propoxyl]-urea]
Ratio of high vigour plants (%) (Mo 17 inbred maize line): 23* %

Cl.c1ccc(N=C(NOCCCN2CCCCC2)c2ccccc2)cc1 [Compound 11, N-[3-(1-piperidinyl)propoxy]-N′-phenyl-benzamidine hydrochloride]
Ratio of high vigour plants (%) (HMv09 inbred maize line): 53* %
